# Measurements: US6660910B1, “Selection marker” (Syngenta Mogen B.V., priority 1997, dated 2003)
# Tests used:
# [1] = tested on: stem segments of Solanum tuberosum cv. Kardal; assay: Transformation of potato stem segments with selection on cyanamide or kanamycin; assay type: cell-based
# Experimental: Described below is the method used for transformation of stem segments of Solanum tuberosum cv. Kardal using Agrobacterium tumefaciens. Nodal explants from in vitro grown potato plants were used 3 to 8 weeks after transfer. The plants were grown on Multiplication Medium (MUM) under a 16 h light period (1700 lux) at 24° C. and a 8 h dark period at 21° C. (The various media can be found in Table 2). Stem segments of approximately 5 mm were cut on sterile filter paper soaked with Washing Medium (WAM) and collected in a flask containing Washing Medium. For approximately 300 explants the Washing Medium was replaced by Pre cultivation Medium (PRM). The flasks were cultured at 80 rpm at the same culture conditions as described above for approximately 24 h. All binary vectors used in this study contained the nptII gene as a plant selectable marker and the nptIII as bacterial selectable marker. Plasmid pMOG410 additionally harbored a chimeric gus gene containing an intron (Vancanneyt et al. Mol. Gen. Genet., 220, 245-250, 1990). Plasmid pMOG1156 additionally harbored the gus gene and the chimeric cah gene encoding cyanamide hydratase. Plasmid pMOG874 additionally harbored the cah gene. Plasmids were maintained in E.coli and A. tumefaciens under kanamycin selection.
# The Agrobacterium strain used in this study harbored a rifampicin selection marker in a C58 chromosomal background. The construction of the helper strain EHA105 is described by Hood et al. (1993), Transg. Res. 2, 208-218.
# Agrobacteria were grown overnight in LB medium with antibiotics (rifampicin 20 mg/l, kanamycin 100 mg/l). The overnight culture was diluted to OD600=0.1 and grown to OD600=0.3 in LB without antibiotics in approximately 2 h time. Bacterial suspensions were centrifuged at 1600×g for 15 minutes at room temperature. Bacteria were resuspended in Washing Medium and used for cocultivation experiments. The Pre cultivation Medium was removed from the flasks and replaced by the Agrobacterium suspension. The flasks were incubated for 20 minutes after which the explants were rinsed twice with Washing Medium. The explants were dried on sterile filter paper and incubated for 48 h on plates containing Cocultivation Medium (COM). Then, the explants were transferred to Post cultivation Medium (POM) and incubated for 72 h. The explants were then transferred to Shoot inducing Medium (SIM) containing several concentrations cyanamide or kanamycin. After two weeks the explants were subcultured on the same medium and approximately three weeks later the explants were placed on Shoot elongation Medium (SEM) containing cyanamide or kanamycin as mentioned above. When shoots were large enough to cut they were transferred to Root inducing Medium (RIM). Shoots that were able to root were then transferred to Root inducing Medium containing 50 mg/l cyanamide or 30 mg/l kanamycin. Simultaneously the transgenic nature of the shoots was determined by testing leaflets of the rooted shoots for expression of the gus gene using a histochemical GUS assay. It appeared that for pMOG1156 rooting of transgenic shoots on medium containing cyanamide was completely correlated with expression of the gus gene.
# [2] = tested on: cotyledons of Lycopersicon esculentum cv. Money Maker; assay: Transformation of tomato cotyledon explants with selection on cyanamide or kanamycin; assay type: cell-based
# Experimental: Described below is the method used for transformation of cotyledons of Lycopersicon esculentum cv. Money Maker using Agrobacterium tumefaciens. The binary vectors and Agrobacteria strains for this transformation method are identical to those described above. Tomato seedlings were germinated on Germination Medium (GEM) under a 16 h light period (1700 lux) at 24° C. and a 8 h dark period at 21° C. (The contents of the various media can be found in Table 4). Cotyledon explants of 5 to 7 day old seedlings were cut on sterile filter paper soaked with Washing Medium (WAM) and placed on plates containing Cocultivation Medium (COM). The plates, each containing approximately 50 explants, were incubated overnight under the same conditions as described above.
# The pre incubated explants were carefully submerged in the Agrobacterium inoculum for 20 minutes.
# The explants were then blotted dry on sterile filter paper and incubated for 48 h on the second set of Cocultivation plates. In procession the explants were incubated for 72 h on plates containing Postcultivation Medium (POM) after which the explants were transferred to Shoot inducing Medium (SIM) containing several concentrations of cyanamide or kanamycin. Every three weeks the explants were subcultured on the same medium. After approximately 8-12 weeks shoots were excised and placed on Root inducing Medium (RIM). Shoots that were able to root were then transferred to Root inducing Medium containing 50 mg/l cyanamide or 30 mg/l kanamycin. Simultaneously leaflets of the rooted shoots were tested for expression of the gus gene in a histochemical GUS assay.
# [3] = pMOG410 (gus-nptII), Cyanamide 20 mg/l during regeneration, 62 inoculated explants
# [4] = pMOG410 (gus-nptII), Cyanamide 30 mg/l during regeneration, 62 inoculated explants
# [5] = pMOG410 (gus-nptII), Cyanamide 40 mg/l during regeneration, 62 inoculated explants
# [6] = pMOG1156 (cah-gus-nptII), Cyanamide 20 mg/l during regeneration, 48 inoculated explants
# [7] = pMOG1156 (cah-gus-nptII), Cyanamide 30 mg/l during regeneration, 48 inoculated explants
# [8] = pMOG1156 (cah-gus-nptII), Cyanamide 40 mg/l during regeneration, 48 inoculated explants
# [9] = pMOG410 (gus-nptII), Cyanamide 20 mg/l during regeneration, 30 inoculated explants
# [10] = pMOG410 (gus-nptII), Cyanamide 30 mg/l during regeneration, 30 inoculated explants
# [11] = pMOG410 (gus-nptII), Cyanamide 40 mg/l during regeneration, 30 inoculated explants
# [12] = pMOG1156 (gus-nptII-cah), Cyanamide 20 mg/l during regeneration, 30 inoculated explants
# [13] = pMOG1156 (gus-nptII-cah), Cyanamide 30 mg/l during regeneration, 30 inoculated explants
# [14] = pMOG1156 (gus-nptII-cah), Cyanamide 40 mg/l during regeneration, 30 inoculated explants
# [15] = pMOG410 (gus-nptII), Kanamycin 50 mg/l during regeneration, 58 inoculated explants
# [16] = pMOG1156 (cah-gus-nptII), Kanamycin 50 mg/l during regeneration, 48 inoculated explants
# [17] = pMOG410 (gus-nptII), Kanamycin 100 mg/l during regeneration, 30 inoculated explants
# [18] = pMOG1156 (gus-nptII-cah), Kanamycin 100 mg/l during regeneration, 30 inoculated explants
structure (smiles),measurement,setting,value
N#CN [Cyanamide],No. of excised shoots,[1]; [3],48
same,No. of gus + shoots,[1]; [3],0
same,No. of rooting shoots,"[1]; pMOG410 (gus-nptII), Cyanamide 20 mg/l during regeneration, 62 inoculated explants, rooting medium 50 mg/l cyanamide",0
same,No. of excised shoots,[1]; [4],10
same,No. of gus + shoots,[1]; [4],0
same,No. of rooting shoots,"[1]; pMOG410 (gus-nptII), Cyanamide 30 mg/l during regeneration, 62 inoculated explants, rooting medium 50 mg/l cyanamide",0
same,No. of excised shoots,[1]; [5],0
same,No. of gus + shoots,[1]; [5],0
same,No. of rooting shoots,"[1]; pMOG410 (gus-nptII), Cyanamide 40 mg/l during regeneration, 62 inoculated explants, rooting medium 50 mg/l cyanamide",0
same,No. of excised shoots,"[1]; pMOG874 (cah-nptII), Cyanamide 20 mg/l during regeneration, 58 inoculated explants",81
same,No. of rooting shoots,"[1]; pMOG874 (cah-nptII), Cyanamide 20 mg/l during regeneration, 58 inoculated explants, rooting medium 50 mg/l cyanamide",2
same,No. of excised shoots,"[1]; pMOG874 (cah-nptII), Cyanamide 30 mg/l during regeneration, 58 inoculated explants",40
same,No. of rooting shoots,"[1]; pMOG874 (cah-nptII), Cyanamide 30 mg/l during regeneration, 58 inoculated explants, rooting medium 50 mg/l cyanamide",8
same,No. of excised shoots,"[1]; pMOG874 (cah-nptII), Cyanamide 40 mg/l during regeneration, 58 inoculated explants",10
same,No. of rooting shoots,"[1]; pMOG874 (cah-nptII), Cyanamide 40 mg/l during regeneration, 58 inoculated explants, rooting medium 50 mg/l cyanamide",1
same,No. of excised shoots,[1]; [6],56
same,No. of gus + shoots,[1]; [6],6
same,No. of rooting shoots,"[1]; pMOG1156 (cah-gus-nptII), Cyanamide 20 mg/l during regeneration, 48 inoculated explants, rooting medium 50 mg/l cyanamide",6
same,No. of excised shoots,[1]; [7],50
same,No. of gus + shoots,[1]; [7],12
same,No. of rooting shoots,"[1]; pMOG1156 (cah-gus-nptII), Cyanamide 30 mg/l during regeneration, 48 inoculated explants, rooting medium 50 mg/l cyanamide",12
same,No. of excised shoots,[1]; [8],15
same,No. of gus + shoots,[1]; [8],2
same,No. of rooting shoots,"[1]; pMOG1156 (cah-gus-nptII), Cyanamide 40 mg/l during regeneration, 48 inoculated explants, rooting medium 50 mg/l cyanamide",2
same,No. of excised shoots,[2]; [9],0
same,No. of gus + shoots,[2]; [9],0
same,No. of rooting shoots,"[2]; pMOG410 (gus-nptII), Cyanamide 20 mg/l during regeneration, 30 inoculated explants, rooting medium 50 mg/l cyanamide",0
same,No. of excised shoots,[2]; [10],3
same,No. of gus + shoots,[2]; [10],0
same,No. of rooting shoots,"[2]; pMOG410 (gus-nptII), Cyanamide 30 mg/l during regeneration, 30 inoculated explants, rooting medium 50 mg/l cyanamide",0
same,No. of excised shoots,[2]; [11],0
same,No. of gus + shoots,[2]; [11],0
same,No. of rooting shoots,"[2]; pMOG410 (gus-nptII), Cyanamide 40 mg/l during regeneration, 30 inoculated explants, rooting medium 50 mg/l cyanamide",0
same,No. of excised shoots,"[2]; pMOG874 (cah-nptII), Cyanamide 20 mg/l during regeneration, 35 inoculated explants",2
same,No. of rooting shoots,"[2]; pMOG874 (cah-nptII), Cyanamide 20 mg/l during regeneration, 35 inoculated explants, rooting medium 50 mg/l cyanamide",0
same,No. of excised shoots,"[2]; pMOG874 (cah-nptII), Cyanamide 30 mg/l during regeneration, 35 inoculated explants",0
same,No. of rooting shoots,"[2]; pMOG874 (cah-nptII), Cyanamide 30 mg/l during regeneration, 35 inoculated explants, rooting medium 50 mg/l cyanamide",0
same,No. of excised shoots,"[2]; pMOG874 (cah-nptII), Cyanamide 40 mg/l during regeneration, 35 inoculated explants",1
same,No. of rooting shoots,"[2]; pMOG874 (cah-nptII), Cyanamide 40 mg/l during regeneration, 35 inoculated explants, rooting medium 50 mg/l cyanamide",1
same,No. of excised shoots,[2]; [12],0
same,No. of gus + shoots,[2]; [12],0
same,No. of rooting shoots,"[2]; pMOG1156 (gus-nptII-cah), Cyanamide 20 mg/l during regeneration, 30 inoculated explants, rooting medium 50 mg/l cyanamide",0
same,No. of excised shoots,[2]; [13],5
same,No. of gus + shoots,[2]; [13],0
same,No. of rooting shoots,"[2]; pMOG1156 (gus-nptII-cah), Cyanamide 30 mg/l during regeneration, 30 inoculated explants, rooting medium 50 mg/l cyanamide",0
same,No. of excised shoots,[2]; [14],5
same,No. of gus + shoots,[2]; [14],3
same,No. of rooting shoots,"[2]; pMOG1156 (gus-nptII-cah), Cyanamide 40 mg/l during regeneration, 30 inoculated explants, rooting medium 50 mg/l cyanamide",3
NC[C@H]1O[C@H](O[C@H]2[C@H](O)[C@@H](O[C@H]3O[C@H](CO)[C@@H](O)[C@H](N)[C@H]3O)[C@H](N)C[C@@H]2N)[C@H](O)[C@@H](O)[C@@H]1O [Kanamycin],No. of excised shoots,[1]; [15],24
same,No. of gus + shoots,[1]; [15],12
same,No. of rooting shoots,"[1]; pMOG410 (gus-nptII), Kanamycin 50 mg/l during regeneration, 58 inoculated explants, rooting medium 30 mg/l kanamycin",13
same,No. of excised shoots,"[1]; pMOG874 (cah-nptII), Kanamycin 50 mg/l during regeneration, 58 inoculated explants",34
same,No. of rooting shoots,"[1]; pMOG874 (cah-nptII), Kanamycin 50 mg/l during regeneration, 58 inoculated explants, rooting medium 30 mg/l kanamycin",26
same,No. of excised shoots,[1]; [16],26
same,No. of gus + shoots,[1]; [16],16
same,No. of rooting shoots,"[1]; pMOG1156 (cah-gus-nptII), Kanamycin 50 mg/l during regeneration, 48 inoculated explants, rooting medium 30 mg/l kanamycin",16
same,No. of excised shoots,[2]; [17],4
same,No. of gus + shoots,[2]; [17],3
same,No. of rooting shoots,"[2]; pMOG410 (gus-nptII), Kanamycin 100 mg/l during regeneration, 30 inoculated explants, rooting medium 30 mg/l kanamycin",3
same,No. of excised shoots,"[2]; pMOG874 (cah-nptII), Kanamycin 100 mg/l during regeneration, 35 inoculated explants",4
same,No. of rooting shoots,"[2]; pMOG874 (cah-nptII), Kanamycin 100 mg/l during regeneration, 35 inoculated explants, rooting medium 30 mg/l kanamycin",1
same,No. of excised shoots,[2]; [18],5
same,No. of gus + shoots,[2]; [18],4
same,No. of rooting shoots,"[2]; pMOG1156 (gus-nptII-cah), Kanamycin 100 mg/l during regeneration, 30 inoculated explants, rooting medium 30 mg/l kanamycin",3
